Results on six cell lines are retold here after the supplement of paper PMC10307832.

What all share (experiment): relative viability (nuclei count vs DMSO), 5 days (fraction); higher = more cells survive
Compound in the assay “Afatinib + OSI-027”: CN(C)C/C=C/C(=O)Nc1cc2c(Nc3ccc(F)c(Cl)c3)ncnc2cc1O[C@H]1CCOC1 [Afatinib] + COc1cccc2cc(-c3nc([C@H]4CC[C@H](C(=O)O)CC4)n4ncnc(N)c34)[nH]c12 [OSI-027] (partner 0.5 µM)
The gist of the method:
(§1)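 For relative viability, nuclei counts in treated wells were divided by those in vehicle wells. Lung cancer cell lines had been pin-tool dosed in 1536-well plates the day after seeding and cultured for 5 days, then fixed and stained in one step (final 0.05% Triton X-100, 1% formaldehyde, 1 ug/ml Hoechst) and imaged at 4×. Doses were one drug alone or a fixed anchor-drug dose plus five library-drug doses (not always all listed) in √10 steps, and values are duplicate-plate medians.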

Compound in the assay “Afatinib + Crizotinib”: CN(C)C/C=C/C(=O)Nc1cc2c(Nc3ccc(F)c(Cl)c3)ncnc2cc1O[C@H]1CCOC1 [Afatinib] + C[C@@H](Oc1cc(-c2cnn(C3CCNCC3)c2)cnc1N)c1c(Cl)ccc(F)c1Cl [Crizotinib] (partner 1 µM)
The procedure, abridged: as §1

Compound in the assay “Afatinib + Linsitinib”: CN(C)C/C=C/C(=O)Nc1cc2c(Nc3ccc(F)c(Cl)c3)ncnc2cc1O[C@H]1CCOC1 [Afatinib] + C[C@]1(O)C[C@@H](c2nc(-c3ccc4ccc(-c5ccccc5)nc4c3)c3c(N)nccn32)C1 [Linsitinib] (partner 1 µM)
The procedure, abridged:
as §1

Compound in the assay “Afatinib + Tozasertib”: CN(C)C/C=C/C(=O)Nc1cc2c(Nc3ccc(F)c(Cl)c3)ncnc2cc1O[C@H]1CCOC1 [Afatinib] + Cc1cc(Nc2cc(N3CCN(C)CC3)nc(Sc3ccc(NC(=O)C4CC4)cc3)n2)n[nH]1 [Tozasertib] (partner 0.1 µM)
The gist of the method:
as §1

As for HCC-15, the relative viability with Afatinib + OSI-027 (first compound 0.005 µM) was found to be 0.708; with Afatinib + OSI-027 (first compound 0.01581 µM), 0.753; with Afatinib + OSI-027 (first compound 0.05 µM) it was 0.733; in the assay with Afatinib + OSI-027 (first compound 0.1581 µM) it was 0.724; with Afatinib + OSI-027 (first compound 0.5 µM), 0.547; with Afatinib + Crizotinib (first compound 0.005 µM), 0.842. In addition, the relative viability in the assay with Afatinib + Crizotinib (first compound 0.01581 µM) came to 0.904; in the assay with Afatinib + Crizotinib (first compound 0.05 µM), 0.804; with Afatinib + Crizotinib (first compound 0.1581 µM), 0.837; with Afatinib + Crizotinib (first compound 0.5 µM), 0.866; with Afatinib + Linsitinib (first compound 0.005 µM), 0.845; in the assay with Afatinib + Linsitinib (first compound 0.01581 µM), 0.894. Further, the relative viability came out at 0.849 with Afatinib + Linsitinib (first compound 0.05 µM); 0.854 in the assay with Afatinib + Linsitinib (first compound 0.1581 µM); 0.788 with Afatinib + Linsitinib (first compound 0.5 µM); 0.49 with Afatinib + Tozasertib (first compound 0.005 µM); 0.488 in the assay with Afatinib + Tozasertib (first compound 0.01581 µM); 0.422 with Afatinib + Tozasertib (first compound 0.05 µM). Further, the relative viability is 0.299 in the assay with Afatinib + Tozasertib (first compound 0.1581 µM) and 0.406 with Afatinib + Tozasertib (first compound 0.5 µM).

PC-3 [JPC-3]: the relative viability turned out to be 0.257 in the assay with Afatinib + OSI-027 (first compound 0.005 µM); 0.271 with Afatinib + OSI-027 (first compound 0.01581 µM); 0.23 in the assay with Afatinib + OSI-027 (first compound 0.05 µM); 0.182 in the assay with Afatinib + OSI-027 (first compound 0.1581 µM); 0.238 with Afatinib + OSI-027 (first compound 0.5 µM); 0.51 in the assay with Afatinib + Crizotinib (first compound 0.005 µM). Further, the relative viability with Afatinib + Crizotinib (first compound 0.01581 µM) worked out at 0.453; with Afatinib + Crizotinib (first compound 0.05 µM), 0.447; in the assay with Afatinib + Crizotinib (first compound 0.1581 µM) it was 0.4; with Afatinib + Crizotinib (first compound 0.5 µM), 0.355; in the assay with Afatinib + Linsitinib (first compound 0.005 µM), 0.593; in the assay with Afatinib + Linsitinib (first compound 0.01581 µM), 0.451. Also, the relative viability in the assay with Afatinib + Linsitinib (first compound 0.05 µM) was determined as 0.439; with Afatinib + Linsitinib (first compound 0.1581 µM), 0.461; in the assay with Afatinib + Linsitinib (first compound 0.5 µM), 0.392; with Afatinib + Tozasertib (first compound 0.005 µM), 0.443; in the assay with Afatinib + Tozasertib (first compound 0.01581 µM), 0.416; with Afatinib + Tozasertib (first compound 0.05 µM) it was 0.428. Further, the relative viability was 0.291 with Afatinib + Tozasertib (first compound 0.1581 µM) and 0.37 in the assay with Afatinib + Tozasertib (first compound 0.5 µM).

With NCI-H1993, the relative viability in the assay with Afatinib + OSI-027 (first compound 0.005 µM) stood at 0.519; with Afatinib + OSI-027 (first compound 0.01581 µM), 0.588; in the assay with Afatinib + OSI-027 (first compound 0.05 µM), 0.674; with Afatinib + OSI-027 (first compound 0.1581 µM), 0.697; with Afatinib + OSI-027 (first compound 0.5 µM), 0.564; with Afatinib + Crizotinib (first compound 0.005 µM) it was 0.647. Further, the relative viability with Afatinib + Crizotinib (first compound 0.01581 µM) is 0.732; in the assay with Afatinib + Crizotinib (first compound 0.05 µM) it was 0.656; with Afatinib + Crizotinib (first compound 0.1581 µM), 0.76; with Afatinib + Crizotinib (first compound 0.5 µM), 0.771; in the assay with Afatinib + Linsitinib (first compound 0.005 µM), 0.714; in the assay with Afatinib + Linsitinib (first compound 0.01581 µM), 0.736. The relative viability with Afatinib + Linsitinib (first compound 0.05 µM) was found to be 0.803; with Afatinib + Linsitinib (first compound 0.1581 µM), 0.822; in the assay with Afatinib + Linsitinib (first compound 0.5 µM) it was 0.696; with Afatinib + Tozasertib (first compound 0.005 µM) it was 0.556; with Afatinib + Tozasertib (first compound 0.01581 µM), 0.582; with Afatinib + Tozasertib (first compound 0.05 µM), 0.601. Moreover, the relative viability amounted to 0.617 with Afatinib + Tozasertib (first compound 0.1581 µM) and 0.549 in the assay with Afatinib + Tozasertib (first compound 0.5 µM).

Consider NCI-H358, for which the relative viability with Afatinib + OSI-027 (first compound 0.005 µM) was found to be 0.484; with Afatinib + OSI-027 (first compound 0.01581 µM), 0.316; with Afatinib + OSI-027 (first compound 0.05 µM), 0.239; with Afatinib + OSI-027 (first compound 0.1581 µM), 0.19; with Afatinib + OSI-027 (first compound 0.5 µM), 0.189; with Afatinib + Crizotinib (first compound 0.005 µM), 0.541. Besides, the relative viability with Afatinib + Crizotinib (first compound 0.01581 µM) is 0.423; in the assay with Afatinib + Crizotinib (first compound 0.05 µM), 0.387; with Afatinib + Crizotinib (first compound 0.1581 µM), 0.241; with Afatinib + Crizotinib (first compound 0.5 µM) it was 0.256; in the assay with Afatinib + Linsitinib (first compound 0.005 µM) it was 0.466; in the assay with Afatinib + Linsitinib (first compound 0.01581 µM), 0.329. In addition, the relative viability was 0.366 in the assay with Afatinib + Linsitinib (first compound 0.05 µM); 0.318 with Afatinib + Linsitinib (first compound 0.1581 µM); 0.264 with Afatinib + Linsitinib (first compound 0.5 µM); 0.0992 with Afatinib + Tozasertib (first compound 0.005 µM); 0.111 in the assay with Afatinib + Tozasertib (first compound 0.01581 µM); 0.0922 with Afatinib + Tozasertib (first compound 0.05 µM). Besides, the relative viability with Afatinib + Tozasertib (first compound 0.1581 µM) stood at 0.0887; in the assay with Afatinib + Tozasertib (first compound 0.5 µM), 0.076.

Take NCI-H1915: the relative viability in the assay with Afatinib + OSI-027 (first compound 0.005 µM) was 0.742; with Afatinib + OSI-027 (first compound 0.01581 µM) it was 0.613; with Afatinib + OSI-027 (first compound 0.05 µM) it was 0.602; with Afatinib + OSI-027 (first compound 0.1581 µM), 0.611; with Afatinib + OSI-027 (first compound 0.5 µM), 0.469; with Afatinib + Crizotinib (first compound 0.005 µM), 1. The relative viability came to 0.963 in the assay with Afatinib + Crizotinib (first compound 0.01581 µM); 0.872 with Afatinib + Crizotinib (first compound 0.05 µM); 0.957 with Afatinib + Crizotinib (first compound 0.1581 µM); 0.894 with Afatinib + Crizotinib (first compound 0.5 µM); 1.13 in the assay with Afatinib + Linsitinib (first compound 0.005 µM); 1.08 in the assay with Afatinib + Linsitinib (first compound 0.01581 µM). Further, the relative viability was determined as 1.11 with Afatinib + Linsitinib (first compound 0.05 µM); 1.07 with Afatinib + Linsitinib (first compound 0.1581 µM); 1.07 with Afatinib + Linsitinib (first compound 0.5 µM); 0.522 with Afatinib + Tozasertib (first compound 0.005 µM); 0.46 with Afatinib + Tozasertib (first compound 0.01581 µM); 0.414 in the assay with Afatinib + Tozasertib (first compound 0.05 µM). Further, the figures for the relative viability with Afatinib + Tozasertib (first compound 0.1581 µM) and with Afatinib + Tozasertib (first compound 0.5 µM) were 0.427 and 0.419, respectively.

For the cell line RERF-LC-KJ, the relative viability in the assay with Afatinib + OSI-027 (first compound 0.005 µM) came to 0.527; with Afatinib + OSI-027 (first compound 0.01581 µM), 0.439; in the assay with Afatinib + OSI-027 (first compound 0.05 µM) it was 0.448; with Afatinib + OSI-027 (first compound 0.1581 µM), 0.336; with Afatinib + OSI-027 (first compound 0.5 µM) it was 0.318; with Afatinib + Crizotinib (first compound 0.005 µM), 0.921. The relative viability with Afatinib + Crizotinib (first compound 0.01581 µM) was 0.842; with Afatinib + Crizotinib (first compound 0.05 µM), 0.801; in the assay with Afatinib + Crizotinib (first compound 0.1581 µM) it was 0.731; with Afatinib + Crizotinib (first compound 0.5 µM) it was 0.705; with Afatinib + Linsitinib (first compound 0.005 µM), 0.888; with Afatinib + Linsitinib (first compound 0.01581 µM), 0.9. For the same cell line, the relative viability with Afatinib + Linsitinib (first compound 0.05 µM) was determined as 0.76; with Afatinib + Linsitinib (first compound 0.1581 µM), 0.656; with Afatinib + Linsitinib (first compound 0.5 µM), 0.716; in the assay with Afatinib + Tozasertib (first compound 0.005 µM), 0.502; with Afatinib + Tozasertib (first compound 0.01581 µM), 0.611; in the assay with Afatinib + Tozasertib (first compound 0.05 µM) it was 0.575. Also, the relative viability was 0.424 with Afatinib + Tozasertib (first compound 0.1581 µM) and 0.484 in the assay with Afatinib + Tozasertib (first compound 0.5 µM).
